We go through 22 compounds from PubChem BioAssay AID330 (DTP/NCI, 2004).

For this assay, the system named is P388 leukemia ip, CD2F1 mice, survival T/C. The assay can be described thus: NCI In Vivo Anticancer Drug Screen. Data for tumor model P388 Leukemia (intraperitoneal) in CD2F1 (CDF1) mice. The conditions noted are these: endpoint: median survival time, higher = longer survival. The essentials: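 Mice carrying the transplanted tumor received test compound or vehicle. Survival was recorded in each group, and the value is the treated-group measurement divided by that of the vehicle-treated control group.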

The mark [1] stands for this setting: dose: 50.0 mg/kg/injection, schedule: Q01DX009 (ip), vehicle: saline with Tween-80.
[2] abbreviates: dose: 100.0 mg/kg/injection, schedule: Q01DX009 (ip), vehicle: saline with Tween-80.
[3] abbreviates: dose: 200.0 mg/kg/injection, schedule: Q01DX009 (ip), vehicle: saline with Tween-80.
The mark [4] stands for this setting: dose: 400.0 mg/kg/injection, schedule: Q01DX009 (ip), vehicle: saline with Tween-80.
The mark [5] stands for this setting: dose: 12.5 mg/kg/injection, schedule: Q01DX009 (ip), vehicle: saline.
Where [6] appears, read: dose: 25.0 mg/kg/injection, schedule: Q01DX009 (ip), vehicle: saline.
Setting [7] is: dose: 50.0 mg/kg/injection, schedule: Q01DX005 (ip), vehicle: Klucel (hydroxypropylcellulose) (HPC).
Setting [8] is: dose: 100.0 mg/kg/injection, schedule: Q01DX005 (ip), vehicle: Klucel (hydroxypropylcellulose) (HPC).
Setting [9] is: dose: 200.0 mg/kg/injection, schedule: Q01DX005 (ip), vehicle: Klucel (hydroxypropylcellulose) (HPC).
Where [10] appears, read: dose: 60.0 mg/kg/injection, schedule: Q01DX005 (ip), vehicle: Klucel (hydroxypropylcellulose) (HPC).
Setting [11] is: dose: 120.0 mg/kg/injection, schedule: Q01DX005 (ip), vehicle: Klucel (hydroxypropylcellulose) (HPC).
Setting [12] is: dose: 240.0 mg/kg/injection, schedule: Q01DX005 (ip), vehicle: Klucel (hydroxypropylcellulose) (HPC).
[13] abbreviates: dose: 100.0 mg/kg/injection, schedule: Q04DX003 (ip), vehicle: saline.
The mark [14] stands for this setting: dose: 200.0 mg/kg/injection, schedule: Q04DX003 (ip), vehicle: saline.
Setting [15] is: dose: 400.0 mg/kg/injection, schedule: Q04DX003 (ip), vehicle: saline.

SMILES strings stand for the structures. “And” between values parts separate entries of the source, which are not always exact repeats. Identical values can stand only once. Toxic doses and inconclusive results are not listed.

As to `COc1ccc(S(=O)(=O)N=N/C=C2\C=CC=CN2O)cc1OC`, the T/C (dose: 1.56 mg/kg/injection, schedule: Q01DX009 (ip), vehicle: saline with Tween-80) is 104 % of control; the T/C (dose: 3.12 mg/kg/injection, schedule: Q01DX009 (ip), vehicle: saline with Tween-80) is 103 % of control; the T/C (dose: 6.25 mg/kg/injection, schedule: Q01DX009 (ip), vehicle: saline with Tween-80) was 103 % of control; the T/C (dose: 12.5 mg/kg/injection, schedule: Q01DX009 (ip), vehicle: saline with Tween-80) was 100 % of control and 103 % of control and 90 % of control; the T/C (dose: 25.0 mg/kg/injection, schedule: Q01DX001 (ip), vehicle: saline with Tween-80) is 100 % of control; the T/C (dose: 25.0 mg/kg/injection, schedule: Q01DX009 (ip), vehicle: saline with Tween-80) is 110 % of control and 114 % of control and 117 % of control. Further, the T/C is 109 % of control (dose: 50.0 mg/kg/injection, schedule: Q01DX001 (ip), vehicle: saline with Tween-80); 119 % of control under setting [1]; 118 % of control (dose: 100.0 mg/kg/injection, schedule: Q01DX001 (ip), vehicle: saline with Tween-80).

Consider `O=[N+]([O-])c1ccccc1S(=O)NCc1c(Cl)cccc1Cl` (centres undefined), for which the T/C (dose: 60.0 mg/kg/injection, schedule: Q01DX005 (ip), vehicle: saline with Tween-80) was 100 % of control; the T/C (dose: 120.0 mg/kg/injection, schedule: Q01DX005 (ip), vehicle: saline with Tween-80) is 90 % of control; the T/C (dose: 240.0 mg/kg/injection, schedule: Q01DX005 (ip), vehicle: saline with Tween-80) was 100 % of control.

For `COC(=O)c1cc(C)cc(O)c1C`, the T/C is 102 % of control under setting [1], 101 % of control under setting [2], 99 % of control under setting [3] and 101 % of control under setting [4].

With `CC(C)C1OCN2C(C)CCCC12` (centres undefined), the T/C by setting is: (dose: 50.0 mg/kg/injection, schedule: Q01DX005 (ip), vehicle: saline) 105 % of control; (dose: 100.0 mg/kg/injection, schedule: Q01DX005 (ip), vehicle: saline) 111 % of control; (dose: 200.0 mg/kg/injection, schedule: Q01DX005 (ip), vehicle: saline) 111 % of control.

Regarding `CN=C(N)N/N=C(\C)c1ccc2c(c1)Cc1cc(Cl)ccc1-2`, the T/C (dose: 12.5 mg/kg/injection, schedule: Q04DX002 (ip), vehicle: saline with Tween-80) is 112 % of control; the T/C (dose: 25.0 mg/kg/injection, schedule: Q04DX002 (ip), vehicle: saline with Tween-80) is 113 % of control and 118 % of control; the T/C (dose: 50.0 mg/kg/injection, schedule: Q04DX002 (ip), vehicle: saline with Tween-80) was 113 % of control and 118 % of control; the T/C (dose: 100.0 mg/kg/injection, schedule: Q04DX002 (ip), vehicle: saline with Tween-80) was 102 % of control.

Consider `Cc1cc(OC(=O)Nc2cc([N+](=O)[O-])ccc2C)c(C)cc1I`, for which the T/C reads like this: under setting [5], 99 % of control; under setting [6], 97 % of control; (dose: 50.0 mg/kg/injection, schedule: Q01DX009 (ip), vehicle: saline) 100 % of control and 91 % of control; (dose: 100.0 mg/kg/injection, schedule: Q01DX009 (ip), vehicle: saline) 92 % of control; (dose: 200.0 mg/kg/injection, schedule: Q01DX009 (ip), vehicle: saline) 100 % of control.

As to `Cc1ccc(S(=O)(=O)C23C(N=NC2(C)C)C3(C)C)cc1` (centres undefined), the T/C runs as follows: under setting [7], 103 % of control; under setting [8], 103 % of control; under setting [9], 100 % of control.

`CC1=CC(=O)[C@@H](O)[C@]2(C)[C@H]3[C@@H](O)[C@H](O)[C@@]4(C)OC[C@@]35[C@@H](C[C@@H]12)OC(=O)C[C@]54O`: the T/C was 115 % of control (dose: 1.0 mg/kg/injection, schedule: Q01DX009 (ip), vehicle: saline) and 153 % of control (dose: 8.0 mg/kg/injection, schedule: Q01DX009 (ip), vehicle: saline).

Turning to `CC1S/C(=N\N=C\c2ccc(Cl)cc2)N=C1c1c(O)c2ccccc2oc1=O` (centres undefined), the T/C by setting is: under setting [10], 93 % of control; (dose: 60.0 mg/kg/injection, schedule: Q02DX002 (ip), vehicle: Klucel (hydroxypropylcellulose) (HPC)) 91 % of control; under setting [11], 91 % of control; (dose: 120.0 mg/kg/injection, schedule: Q02DX002 (ip), vehicle: Klucel (hydroxypropylcellulose) (HPC)) 94 % of control; under setting [12], 86 % of control; (dose: 240.0 mg/kg/injection, schedule: Q02DX002 (ip), vehicle: Klucel (hydroxypropylcellulose) (HPC)) 94 % of control.

On to `CC1(C)CN(c2ccccc2)N(CN2CCOCC2)C1=O`, for which the T/C is, setting by setting: (dose: 3.12 mg/kg/injection, schedule: Q01DX009 (ip), vehicle: Klucel (hydroxypropylcellulose) (HPC)) 103 % of control; (dose: 6.25 mg/kg/injection, schedule: Q01DX009 (ip), vehicle: Klucel (hydroxypropylcellulose) (HPC)) 97 % of control; (dose: 12.5 mg/kg/injection, schedule: Q01DX009 (ip), vehicle: Klucel (hydroxypropylcellulose) (HPC)) 104 % of control.

Consider `CC(=O)N(c1nc2ccccc2s1)N1C(=O)c2ccccc2C1=O`, for which the T/C under setting [10] is 98 % of control, the T/C under setting [11] was 94 % of control and the T/C under setting [12] is 90 % of control.

Turning to `CC[N+](CC)(CC)CCOc1nc(OCC[N+](CC)(CC)CC)nc(OCC[N+](CC)(CC)CC)n1`, the T/C (dose: 6.25 mg/kg/injection, schedule: Q01DX009 (ip), vehicle: saline) was 100 % of control; the T/C under setting [5] is 100 % of control; the T/C under setting [6] was 100 % of control.

For the compound `OC12CCCCC1CCCS2` (centres undefined), the T/C under setting [13] is 98 % of control, the T/C under setting [14] was 94 % of control and the T/C under setting [15] is 102 % of control.

Consider `CCCCCCCC/C=C\CCCCCCCCCCCC(=O)OCCN(CCOC(=O)CCCCCCCCCCC/C=C\CCCCCCCC)C(=O)c1ccccc1`, for which the T/C by setting is: under setting [1], 106 % of control; under setting [2], 116 % of control; under setting [3], 116 % of control.

In the case of `CNC(C)=O`, the T/C by setting is: under setting [2], 95 % of control; under setting [13], 90 % of control; under setting [3], 95 % of control; under setting [14], 95 % of control; under setting [4], 95 % of control; under setting [15], 100 % of control.

For the compound `O=C1CSC(c2ccc(Cl)c([N+](=O)[O-])c2)N1c1nncs1` (centres undefined), the T/C runs as follows: under setting [10], 99 % of control; under setting [11], 100 % of control; under setting [12], 97 % of control.

Regarding `COc1ccc(C(C)=C2C=C(C(C)(C)C)C(=O)C(C(C)(C)C)=C2)cc1`, the T/C reads like this: (dose: 50.0 mg/kg/injection, schedule: Q01DX005 (ip), vehicle: saline + Tween-80 + alcohol) 111 % of control; (dose: 100.0 mg/kg/injection, schedule: Q01DX005 (ip), vehicle: saline + Tween-80 + alcohol) 109 % of control; (dose: 200.0 mg/kg/injection, schedule: Q01DX005 (ip), vehicle: saline + Tween-80 + alcohol) 113 % of control.

On to `COc1cc(Br)c(C2SCC(=O)N2c2nncs2)cc1OC` (centres undefined), for which the T/C runs as follows: under setting [10], 121 % of control; under setting [11], 106 % of control; under setting [12], 100 % of control.

As to `O=C1c2ccccc2C(=O)N1N1CC1c1ccccc1` (centres undefined), the T/C is 106 % of control (dose: 50.0 mg/kg/injection, schedule: Q01DX005 (ip), vehicle: saline with Tween-80); 101 % of control (dose: 100.0 mg/kg/injection, schedule: Q01DX005 (ip), vehicle: saline with Tween-80); 97 % of control (dose: 200.0 mg/kg/injection, schedule: Q01DX005 (ip), vehicle: saline with Tween-80).

Regarding `OCCOc1ccc(OCCO)c2ccccc12`, the T/C was 103 % of control under setting [7], 104 % of control under setting [8] and 100 % of control under setting [9].

In the case of `CCOC(=O)c1[nH]c(C#N)c(C(=O)OCC)c1C`, the T/C is 86 % of control under setting [2], 96 % of control under setting [3] and 105 % of control under setting [4].

As to `CCCCCCCCCCCCCCCCCC[N+](C)(C)C`, the T/C (dose: 3.12 mg/kg/injection, schedule: Q01DX009 (ip), vehicle: saline) was 118 % of control.
